Data on two molecules can be found in publication PMC9014415, “Repositioning of a Diaminothiazole Series Confirmed to Target the Cyclin-Dependent Kinase CRK12 for Use in the Treatment of African Animal Trypanosomiasis” (Journal of Medicinal Chemistry, 2022).

Data set [1] concerns T. congolense (KONT2/133). As to the kind of experiment: Cattle efficacy for compound 2, intravenous infusion (Clinvet), T. congolense. In kind it is in vivo, Trypanosoma congolense. The settings on record: Friesian-Holstein cattle infected with T. congolense; n = 4; at 100 days. As to the method: Unfortunately, an injection site tolerability issue arose during the pharmacokinetic study in cattle that was not evident in rats. […] To circumvent these issues, compound 2 was assessed in an in vivo proof of concept efficacy study in Friesian-Holstein cattle using an IV infusion regimen. The study was conducted in four animals infected with T. congolense (KONT2/133) and four animals infected with T. vivax (STIB719). Three additional animals infected with each strain formed the vehicle control groups and were dosed IV once daily with saline. Pharmacokinetic modeling was used to define a dosing regimen that mimics the blood concentration–time profile that delivered cure in mice (10 mg/kg SC once daily for 2 days, with a Ctrough of >20 ng/mL (>38 nM)). A continuous infusion over 36 h and two loading doses 24 h apart were required. […]
Response to treatment was determined by monitoring parasitaemia twice a week until day 21. […]
In each of the cattle efficacy studies (3.3, 3.4 and 3.5), efficacy was assessed primarily on absence of recrudescence of parasitaemia for 100 days after treatment administration together with improvements in Packed Cell Volume, body weight and clinical signs of infected compared with uninfected animals. […]

A further data set can be described thus: Protein plasma binding. Format: in vitro ADME. The settings on record: mouse. As to the method:
2.4 Protein plasma binding
This was determined as previously described.6
2.5 PK and maximum tolerated dose - mouse
PK studies in female NMRI mice (Figure S1): Test compounds 1, 2 and 10 were dosed SC at 10 mg free base/kg (dose volume 10 mL/kg; dose vehicle: 5% (v/v) DMSO, 40% polyethylene glycol 400 (PEG400) and 55% deionized water) to female NMRI mice (n = 3). Blood samples (10 μL) were taken from each mouse at 0.08, 0.25, 0.5, 1, 2, 4, 6, 8 h post dose (24 h post dose for compounds 2 and 10 only) and mixed with two volumes of deionized water (20 μL). Alternatively, compound 2 was delivered for 48 h via SC implanted ALZET osmotic pumps (10, 25 and 50 mg free base/mL, vehicle: 50% DMSO and 50% deionized water) to the female NMRI mouse (n = 3). Blood samples (10 μL) from each mouse were taken at 1, 3, 6, 24, 30 and 48 h post-dose and mixed with two volumes of deionized water (20 μL).
Compound 1 as free base in 5% DMSO; 40% PEG400; 55% MilliQ water was dosed daily subcutaneously with doses of 50 mg/kg, 100 mg/kg and 300 mg/kg for 3 days.
2.6 PK and formulation studies - male Sprague rats […]

As for `CC(C)CS(=O)(=O)N[C@H]1CC[C@H](Nc2nc(N)c(C(=O)c3c(F)cc(CN(C)C)cc3F)s2)CC1` [Compound 2, N-(trans)-[4-[[4-Amino-5-[4-(dimethylaminomethyl)-2,6-difluoro-benzoyl]thiazol-2-yl]amino]cyclohexyl]-2-methyl-propane-1-sulfonamide], the “Efficacy in cattle, IV bolus and infusion” value in data set [1] is “cured”. The fraction unbound is free concentration divided by total concentration. Higher therefore signals much free substance. Turning to `CC(C)CS(=O)(=O)N[C@H]1CC[C@H](Nc2nc(N)c(C(=O)c3c(F)cccc3F)s2)CC1` [Compound 1, N-((trans)-4-((4-Amino-5-(2,6-difluorobenzoyl)thiazol-2-yl)amino)cyclohexyl)-2-methylpropane-1-sulfonamide], the fraction unbound in the data set “Protein plasma binding” worked out at 0.16.
